Test results taken from patent EP2067861A1, “Animals of the rattus genus wherein msh6 expression is functionally decreased and methods for the generation of specific mutants therefrom” (Koninklijke Nederlandse Akademie van Wetenschappen, priority 2007, dated 2009).
Several values for one entry are separate records, joined by “and”; a condition that tells them apart may be missing. Equal entries are not always repeated.

What was measured:
[1] = tested on: msh6^-/- males; test: ENU dose-response experiment: fertility of treated founder males; assay type: in vivo, rat
Description: All experiments were approved by the Animal Care Committee of the Royal Dutch Academy of Science according to the Dutch legal ethical guidelines. Experiments were designed to minimize the number of required animals and their suffering. Male MSH6 knockout rats (Msh6^1Hubr) of 12 weeks of age were given three weekly intraperitoneal injections of 25, 30 and 35 mg/kg bodyweight ENU. Preparation of ENU (Isopac; Sigma) was done as decribed (for detailed description, see (Smits et al. (2006) Pharmacogenet Genomics 16, 159-69) After the treatment the injected males were monitored for fertility by breeding with one or two females. Pups from these early matings were counted, but not analyzed. Ten weeks after the last injection, fertile males of the highest-dosed fertile group were kept on a weekly breeding scheme with two females to produce F1 progeny for mutational analysis. Animals were housed under standard conditions in groups of two to three per cage per gender under controlled experimental conditions (12-h light/dark cycle, 21±1°C, 60% relative humidity, food and water ad libitum).
The efficiency of ENU is dependent of the dose, reflected by a higher mutagenicity after three weekly administrations of low doses of the mutagen compared to a single high-dose injection (Justice et al. (2000) Mamm Genome 11, 484-8). Furthermore it has been shown that higher ENU concentrations increase the mutation frequency (Smits et al. ([…]) Pharmacogenet Genomics 16, 159-69; Smits and Cuppen (2006) Trends Genet. 22, 232-40). To determine the optimal ENU concentration we performed an ENU dose-response experiment and determined the fertility of the founders. At 12 weeks of age msh6^-/- males were treated with 3 weekly doses of different concentrations of the mutagen. Fertility was determined after a full cycle of spermatogenesis (± 10 weeks) by breeding and/or histological analysis of the testes. At concentrations of 35, 30 and 25 mg/kg, respectively 1/8, 5/8 and 4/6 males were fertile (Table 5). Compared to earlier studies, where at 40 and 35 mg/kg ENU respectively 6/10 and 10/10 rats are fertile (Smits and Cuppen (2006) Trends Genet. 22, 232-40), this is a considerable decrease. It is known that MSH6 deficiency reduces lifespan in both rats (van Boxtel et al. (2007) submitted) and mice (Edelmann (1997) Cell 91, 467-77) as a result of tumor development. MSH6 deficiency increased ENU sensitivity not only in fertility, but also in survival. Whereas untreated msh6^-/- rats show a median survival of 14 months, this is reduced in the ENU treated males to an average mean of 37 ± 3 weeks (∼ 8 months) and no male was alive after 50 weeks of age (Figure 5). This decrease in lifespan was due to the development of tumors, mainly lymphomas (data not shown). […]

[2] = tested on: wild-type rats; settings: cited from earlier work
[3] = tested on: A:T base pairs; settings: Justice et al. (1999); cited from earlier work

In the case of `CCN(N=O)C(N)=O` [ENU, N-ethyl-N-nitrosourea], the “# Fertile males” value ([1]; MSH6^-/- 3 x 25 mg of ENU per kg bodyweight (three weekly injections), 6 males injected, testes histology and/or at least one litter 10 weeks after last injection) was 4/6 and 4, the “# Fertile males” value ([1]; MSH6^-/- 3 x 30 mg of ENU per kg bodyweight (three weekly injections), 8 males injected) was 5/8 and 5 and the “# Fertile males” value ([1]; MSH6^-/- 3 x 35 mg of ENU per kg bodyweight (three weekly injections), 8 males injected) was 1/8 and 1. For the same compound, the “# Fertile males” value ([1]; MSH6^-/- Total of the three dose groups, 24 males injected as printed) was 10, the rats fertile ([2]; 35 mg/kg ENU, earlier studies (Smits and Cuppen 2006)) was 10/10 and the “# Fertile males” value ([2]; Control 3 x 40 mg of ENU per kg bodyweight, 10 males injected) was 6/10 and 6. For the same compound, the “A:T->C:G transversions” value [3] was 5%, the “A:T->G:C transitions” value [3] was 38% and the “A:T->T:A transversions” value [3] was 44%. The “G:C ->A:T transitions” value [3] was 8%, the “G:C->C:G transversions” value [3] was 3% and the “G:C->T:A transversions” value [3] was 2%. For the same compound, the missense mutations [3] was “about 64%”, the nonsense mutations [3] was about 10% and the splicing errors [3] was about 26%.
